In US20070260088A1, “Calcium Trifluoroacetate for Preparing Antiangiogenetic Medicaments” (priority 2004, published 2007):

Assays:
solid tumor cells = settings: disclosed in EP 1 423 131; cited from earlier work
[1] = test system: endothelium proliferation; experiment: endothelium proliferation; format: cell-based
tumor growth = settings: disclosed in EP 1 423 131; cited from earlier work
[2] = test system: VEGF-induced angiogenesis in Matrigel plugs; experiment: murine model of angiogenesis induced by subcutaneous implant of Matrigel containing VEGF; format: in vivo, mouse; settings: for reduction in angiogenesis (morphometric analysis, percentage of area covered by vessels): VEGF 40 ng/ml in Matrigel, plugs removed after 7 days, vs VEGF alone
Procedure: The effect of calcium trifluoroacetate in angiogenesis was evidenced in a murine model of angiogenesis induced by a subcutaneous implant of Matrigel. Matrigel is liquid at 4° C. and solid at 37° C., so that a pro-angiogenetic stimulus can be mixed with Matrigel and inoculated. In this protocol, the selected angiogenetic factor was […], added to the Matrigel together with 16 U/ml heparin, as described in literature (Bussolati B, Altered angiogenesis and survival in human tumor-derived endothelial cells. FASEB J. 2003; Bussolati B, Vascular endothelial growth factor receptor-1 modulates vascular endothelial growth factor-mediated angiogenesis via nitric oxide. Am J Pathol. 2001).
Calcium trifluoroacetate was administered intraperitoneally 30 minutes before Matrigel, then on alternate days (day 2, 4, 6), at a dose of 2 or 4 μg/mouse (0.2 mg/Kg). After 7 days, the animals were killed and the Matrigel plugs were removed for histological examination. Angiogenesis was evaluated by computer assisted morphometric analysis of the percentage of area covered by vessels.
This strong antiangiogenic effect could already be observed macroscopically and confirmed histologically.

endothelial cells = experiment: effect of endothelial growth factors on calcium entrance into single endothelial cells; format: cell-based

SMILES: O=C([O-])C(F)(F)F.O=C([O-])C(F)(F)F.[Ca+2] [calcium trifluoroacetate]
- in vitro cytotoxic activity on solid tumor cells (solid tumor cells): cytotoxic activity
- action on endothelium proliferation [1]: evident inhibitory action
- tumor growth in animal experimental models (tumor growth): inhibit tumor growth
- reduction in angiogenesis (morphometric analysis, percentage of area covered by vessels) ([2]; 2 μg/mouse intraperitoneally on alternate days): above 40%
- reduction in angiogenesis (morphometric analysis, percentage of area covered by vessels) ([2]; 4 μg/mouse intraperitoneally on alternate days): 80%
- effect of VEGF on angiogenesis in Matrigel plugs (macroscopic and histological) ([2]; mice treated with calcium trifluoroacetate, VEGF 40 ng/ml): dramatically reduced
- effect of endothelial growth factors on calcium entrance into single endothelial cells (endothelial cells): able to block, at least partly
